Patent US20140336182A1, “Aurora Kinase Modulators and Method of Use” (Amgen Inc., priority 2013, published 2014)

System: HeLa cells
Experiment: HeLa cell 24 hr ploidy assay (DNA content)
Assay type: cell-based
Details: HeLa cells, 4N ploidy, average, read-out: 24h_4NPloidy EC50_IP (uM Avg)
Summary of the method: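 HeLa cells (1×10^4/well, MEM+10% FBS) cultured 24 h, treated with serially diluted compounds (0.25% DMSO final), then fixed, permeabilized and stained with Hoechst 33342 (0.5 ug/ml). Imaging quantified % 4N and >4N cells; EC50 IP and EC50 transit derived from dose curves.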

EC50	Compound
0.009 µM	c1ccc(-c2nnc(Nc3ccc(Sc4ccnc5cccnc45)cc3)c3ccccc23)cc1 [compound 285]
0.005 µM	COc1cnc2c(Sc3ccc(Nc4nnc(N5CCN6CCCC[C@@H]6C5)c5ccccc45)cc3)ccnc2c1 [compound 584]

Same assay, conditions: Homo sapiens, HeLa, 4N ploidy, average, read-out: 24h_4NPloidy EC50_IP (uM Avg)

EC50	Compound
0.442 µM	COc1cnc2c(Oc3ccc(Nc4nnc(-c5cccc(C#N)c5)c5ccccc45)cc3)ccnc2c1 [Example 29, 3-(4-(4-(7-methoxy-1,5-naphthyridin-4-yloxy)phenylamino)phthalazin-1-yl)benzonitrile]
0.068 µM	COc1cnc2c(Oc3ccc(Nc4nnc(-c5ccc(C(C)C)cc5)c5ccccc45)cc3)ccnc2c1 [compound 155]
0.02 µM	COc1cc2nccc(Sc3ccc(Nc4nnc(-c5ccccc5)c5ccccc45)cc3)c2cc1OC [compound 104]
0.11 µM	COc1ccc2c(Oc3ccc(Nc4nnc(-c5cc(C)ccn5)c5ccccc45)cc3)ccnc2c1 [compound 118]
0.449 µM	COc1cnc2c(Oc3ccc(Nc4nnc(-c5ccccc5)c5ccccc45)nc3)ccnc2c1 [compound 135]
0.041 µM	COc1cnc2c(Oc3ccc(Nc4nnc(-c5ccccc5)c5ccccc45)cc3)ccnc2c1 [compound 79, N-(4-((7-(methyloxy)-1,5-naphthyridin-4-yl)oxy)phenyl)-4-phenyl-1-phthalazinamine]
0.171 µM	NC(=O)c1cc2nccc(Oc3ccc(Nc4nnc(-c5ccccc5)c5ccccc45)cc3)c2s1 [Example 46, 7-(4-(4-phenylphthalazin-1-ylamino)phenoxy)thieno[3,2-b]pyridine-2-carboxamide]
0.057 µM	COc1cccc(-c2nnc(Nc3ccc(Oc4ccnc5cc(OC)cnc45)cc3)c3ccccc23)c1 [compound 139]
0.109 µM	COc1cnc2c(Oc3ccc(Nc4nnc(-c5cccc(C)n5)c5ccccc45)cc3)ccnc2c1 [compound 111]
0.022 µM	COc1cnc2c(Oc3ccc(Nc4nnc(-c5ccc(Cl)s5)c5ccccc45)cc3)ccnc2c1 [compound 140, 4-(5-chloro-2-thienyl)-N-(4-((7-(methyloxy)-1,5-naphthyridin-4-yl)oxy)phenyl)-1-phthalazinamine]
0.085 µM	COc1cnc2c(Oc3ccc(Nc4nnc(N5CCN(C)CC5)c5ccccc45)cc3)ccnc2c1 [compound 85]
0.091 µM	Brc1ccc2nccc(Oc3ccc(Nc4nnc(-c5ccccc5)c5ccccc45)cc3)c2c1 [compound 134]
0.094 µM	COc1cnc2c(Oc3ccc(Nc4nnc(-c5cc6ccccc6n5C)c5ccccc45)cc3)ccnc2c1 [compound 143, 4-(1-methyl-1H-indol-2-yl)-N-(4-((7-(methyloxy)-1,5-naphthyridin-4-yl)oxy)phenyl)-1-phthalazinamine]

Same assay, conditions: Homo sapiens, HeLa, HeLa cells, 4N ploidy, average, read-out: 24h_4NPloidy EC50_IP (uM Avg)

EC50	Compound
0.112 µM	Cc1ccc(-c2nnc(Nc3ccc(Oc4ccnc5ccoc45)cc3)c3ccccc23)cc1N [compound 480]
0.131 µM	Cc1noc(-c2cc3nccc(Sc4ccc(Nc5nnc(-c6ccc(Cl)cc6)c6ccccc56)cc4)c3s2)n1 [compound 323]
0.012 µM	Cc1csc(-c2nnc(Nc3ccc(Oc4ccnc5cccnc45)cc3)c3ccccc23)c1 [compound 447]
< 0.0023 µM	Oc1cc(-c2nnc(Nc3ccc(Sc4ccnc5cccnc45)cc3)c3ccccc23)ccc1Cl [compound 452]
> 1.2 µM	COc1cnc2c(Oc3ccc(Nc4nnc(-c5nccn5C)c5ccccc45)cc3)ccnc2c1 [Example 30, N-(4-(7-methoxy-1,5-naphthyridin-4-yloxy)phenyl)-4-(1-methyl-1H-imidazol-2-yl)phthalazin-1-amine]
0.027 µM	COc1cnc2c(Oc3ccc(Nc4nnc(-c5csc6ccccc56)c5ccccc45)cc3)ccnc2c1 [compound 169]
0.01 µM	COc1cc2c(Oc3ccc(Nc4nnc(-c5ccccc5)c5ccccc45)cc3)ccnc2cc1O [compound 422]
0.081 µM	COc1cnc2c(Oc3ccc(Nc4nnc(-c5cc(F)cc(F)c5)c5ccccc45)cc3)ccnc2c1 [compound 539]
0.226 µM	O=C(Nc1cc(Oc2ccc(Nc3nnc(-c4ccccc4)c4ccccc34)cc2F)ccn1)N1CCOCC1 [compound 179]
0.027 µM	c1ccc(-c2nnc(Nc3ccc(Oc4ccnc5cc(-c6ccsc6)ccc45)cc3)c3ccccc23)cc1 [compound 339]
0.012 µM	COc1ccc2nccc(Sc3ccc(Nc4nnc(-c5ccc(Cl)cc5)c5ccccc45)cc3)c2n1 [compound 348]
0.039 µM	COc1ccc2nccc(Oc3ccc(Nc4nnc(-c5ccccc5)c5ccccc45)cc3)c2n1 [compound 347]
0.001 µM	Cc1ccc(-c2nnc(Nc3ccc(Sc4ccnc5cccnc45)cc3)c3ccccc23)cn1 [compound 553]
0.002 µM	COc1cnc2c(Oc3ccc(Nc4nnc(-c5cc(C)c(C)s5)c5ccccc45)cc3)ccnc2c1 [compound 260]
0.008 µM	Cn1cncc1-c1cc2nccc(Oc3ccc(Nc4nnc(-c5ccc(Cl)cc5)c5ccccc45)cc3)c2s1 [compound 249]
0.009 µM	COc1ccc2nccc(Sc3ccc(Nc4nnc(-c5cc(C)cs5)c5ccccc45)cc3)c2n1 [compound 549]
0.002 µM	Cc1ccc(-c2nnc(Nc3ccc(Oc4ccnc5cc(-c6cncn6C)sc45)cc3)c3ccccc23)cc1 [compound 203]
0.035 µM	CCc1cc(-c2ccc(C)cc2)nnc1Nc1ccc(Sc2ccnc3cccnc23)cc1 [compound 358]
0.033 µM	COc1cnc2c(Oc3ccc(Nc4nnc(-c5ccc(F)c(F)c5)c5ccccc45)cc3)ccnc2c1 [compound 214]
0.082 µM	CCN(CC)C(=O)c1cc2nccc(Oc3ccc(Nc4nnc(-c5ccc(Cl)cc5)c5ccccc45)cc3)c2s1 [compound 270]
0.056 µM	CCc1cc(-c2cc(C)cs2)nnc1Nc1ccc(Oc2ccnc3cc(OC)cnc23)cc1 [compound 210]
0.119 µM	FC(F)(F)Oc1ccc2nccc(Oc3ccc(Nc4nnc(-c5ccc(Cl)cc5)c5ccccc45)cc3)c2c1 [compound 574]
0.032 µM	Cc1ccc(-c2nnc(Nc3ccc(Sc4ccnc5ccoc45)cc3)c3ccccc23)cn1 [compound 481]
0.028 µM	COc1ccc2c(Cc3ccc(Nc4nnc(-c5ccccc5)c5ccccc45)cc3)ccnc2c1 [compound 319]
0.016 µM	COc1ccc2nccc(Sc3ccc(Nc4nnc(-c5ccc(Cl)cn5)c5ccccc45)cc3)c2n1 [compound 550]

EC50	Compound
0.006 µM	Cc1ccc(-c2nnc(Nc3ccc(Sc4ccnc5cc(C6CC6)oc45)cc3)c3ccccc23)cc1N [compound 487]
0.002 µM	COc1cnc2c(Oc3ccc(Nc4nnc(-c5ccc6cc[nH]c6c5)c5ccccc45)cc3)ccnc2c1 [compound 206]
0.02 µM	Clc1ccc(-c2nnc(Nc3ccc(Sc4ccnc5ccoc45)cc3)c3ccccc23)cc1 [compound 465]
0.13 µM	Cc1ccsc1-c1nnc(Nc2ccc(Oc3ccnc4cc(C#N)ccc34)cc2)c2ccccc12 [compound 184]
0.045 µM	COc1cnc2c(Oc3ccc(Nc4nnc(-c5ccc6c(c5)OC(F)(F)O6)c5ccccc45)cc3)ccnc2c1 [compound 291]
0.041 µM	N#Cc1cc2nccc(Sc3ccc(Nc4nnc(-c5ccc(Cl)cn5)c5ccccc45)cc3)c2s1 [compound 460]
0.102 µM	Clc1ccc(-c2nnc(Nc3ccc(Oc4ccnc5ccoc45)cc3)c3ccccc23)cc1 [compound 483]
0.397 µM	FC(F)(F)Oc1ccc2c(Oc3ccc(Nc4nnc(-c5ccccc5)c5ccccc45)cc3)ccnc2c1 [compound 496]
0.004 µM	COc1cnc2c(Oc3ccc(Nc4nnc(-c5cc6ccccc6s5)c5ccccc45)cc3)ccnc2c1 [compound 171]
> 1.2 µM	COc1cnc2c(Oc3ccc(Nc4nnc(-c5c(C)nn(C)c5C)c5ccccc45)cc3)ccnc2c1 [compound 261]
0.026 µM	Clc1ccc(-c2nnc(Nc3ccc(Oc4ncnc5ccccc45)cc3)c3ccccc23)cc1 [compound 562]
0.045 µM	COc1cnc2c(Oc3ccc(Nc4nnc(-c5ccc(Cl)c(OCCS(C)(=O)=O)c5)c5ccccc45)cc3)ccnc2c1 [Example 394, 4-(4-Chloro-3-(2-(methylsulfonyl)ethoxy)phenyl)-N-(4-(7-methoxy-1,5-naphthyridin-4-yloxy)phenyl)phthalazin-1-amine]
0.007 µM	Cc1csc(-c2nnc(Nc3ccc(Oc4ccnc5cc(C#N)ccc45)cc3)c3ccccc23)c1 [compound 170]
0.007 µM	COc1cc2nccc(Sc3ccc(Nc4nnc(-c5ccccc5)c5ccccc45)cc3)c2cn1 [compound 353]
0.011 µM	c1ccc2c(-c3ccc4c(c3)OCO4)nnc(Nc3ccc(Oc4ccnc5ccsc45)cc3)c2c1 [compound 279]
0.013 µM	COc1ccc2c(Oc3ccc(Nc4nnc(-c5ccc(Cl)cc5)c5ccccc45)cc3)ccnc2c1 [compound 345]
0.191 µM	COc1cnc2c(Oc3ccc(Nc4nnc(-c5ccc(Cl)cc5)c5ccccc45)cc3OC)ccnc2c1 [compound 566]
0.015 µM	c1ccc(-c2nnc(Nc3ccc(Sc4ccnc5ccsc45)cc3)c3ccccc23)cc1 [compound 355]
0.007 µM	COc1ccc(-c2nnc(Nc3ccc(Sc4ccnc5cc(OC)cnc45)cc3)c3ccccc23)cc1 [compound 357]
0.085 µM	COc1cc2nccc(Oc3ccc(Nc4nnc(-c5ccccc5)c5ccccc45)cc3)c2cc1C#N [Example 392, 7-Methoxy-4-(4-(4-phenylphthalazin-1-ylamino)phenoxy)quinoline-6-carbonitrile]
> 1.2 µM	COc1cnc2c(Oc3ccc(Nc4nnc(-c5cccnc5F)c5ccccc45)cc3)ccnc2c1 [compound 191]
0.026 µM	CCc1ccc(-c2nnc(Nc3ccc(Oc4ccnc5cc(OC)cnc45)cc3)c3ccccc23)s1 [compound 229]
0.112 µM	COc1cnc2c(N(C)c3ccc(Nc4nnc(-c5cc(C)cs5)c5ccccc45)cc3)ccnc2c1 [compound 247]
0.101 µM	Clc1ccc(-c2nnc(Nc3ccc(Oc4ccnc5[nH]ccc45)cc3)c3ccccc23)cc1 [compound 241]
